Results: patent publication US10618918B2, “Substituted boronic acids as antimicrobials” (priority 2015, dated 2020)
Like-named read-outs stand apart in the source and are kept apart here.

Columns and labels:
KP1004 KPC-2 [1] = test: Biapenem potentiation (MPC@1), strain KP1004 KPC-2; format: cell-based; conditions: minimum BLI concentration inhibiting growth with biapenem 1 μg/mL; tested up to 40 μg/mL
Protocol: (§1) Biapenem was present in the test medium at 1 μg/mL. […] Table 3 summarizes the BLI potency of biapenem potentiation (MPC@1) for two strains overexpressing class A (KPC) and class D (OXA-48) carbapenemases. Biapenem MIC for each strain is also shown.

KP1086 OXA-48 = test: Biapenem potentiation (MPC@1), strain KP1086 OXA-48; format: cell-based; conditions: minimum BLI concentration inhibiting growth with biapenem 1 μg/mL; tested up to 40 μg/mL
Protocol: as §1

AB1053 OXA-72 = test: Meropenem potentiation (MPC@8), strain AB1053 OXA-72; format: cell-based, Acinetobacter baumannii; conditions: minimum BLI concentration inhibiting growth with meropenem 8 μg/mL; tested up to 20 μg/mL
AB1054 OXA-23 = test: Meropenem potentiation (MPC@8), strain AB1054 OXA-23; format: cell-based, Acinetobacter baumannii; conditions: minimum BLI concentration inhibiting growth with meropenem 8 μg/mL; tested up to 20 μg/mL
[2] = molecular target: T1, purified class A, C and D enzymes (β-lactamases) (Acinetobacter baumannii, UniProt Q9L4P2); test: biochemical; format: biochemical; conditions: purified OXA-23; nitrocefin (NCF) as reporter substrate
T1 construct: rows headed: Ki (OXA-23, NCF), uM; other: purified OXA-23; nitrocefin (NCF) as reporter substrate
T1 sequence (Q9L4P2 whole entry): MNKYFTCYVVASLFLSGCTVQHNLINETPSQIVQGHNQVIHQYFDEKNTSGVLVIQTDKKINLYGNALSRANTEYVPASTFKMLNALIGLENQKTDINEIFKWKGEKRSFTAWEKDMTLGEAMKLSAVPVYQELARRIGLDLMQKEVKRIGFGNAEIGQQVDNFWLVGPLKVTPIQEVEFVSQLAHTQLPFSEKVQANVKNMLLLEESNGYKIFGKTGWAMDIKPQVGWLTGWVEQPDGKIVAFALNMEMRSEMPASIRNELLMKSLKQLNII

[3] = molecular target: purified class A, C and D enzymes (β-lactamases) (Enterobacter cloacae, UniProt P05364); test: biochemical; format: biochemical
Sequence of purified class A, C and D enzymes (β-lactamases) (Enterobacter cloacae, UniProt P05364) (P05364 21-381): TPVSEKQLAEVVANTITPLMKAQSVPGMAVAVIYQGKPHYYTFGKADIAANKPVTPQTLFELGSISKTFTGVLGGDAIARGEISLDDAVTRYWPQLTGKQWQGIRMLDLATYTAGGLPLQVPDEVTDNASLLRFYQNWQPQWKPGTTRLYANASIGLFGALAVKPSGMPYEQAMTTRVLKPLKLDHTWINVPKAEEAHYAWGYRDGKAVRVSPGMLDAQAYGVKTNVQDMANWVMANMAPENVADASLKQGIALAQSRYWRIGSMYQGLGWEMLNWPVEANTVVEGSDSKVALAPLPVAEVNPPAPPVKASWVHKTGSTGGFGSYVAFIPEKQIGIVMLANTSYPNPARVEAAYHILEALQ

[4] = molecular target: purified class A, C and D enzymes (β-lactamases) (Escherichia coli, UniProt Q9L5C7); test: biochemical; format: biochemical; conditions: purified CTX-M-14; nitrocefin (NCF) as reporter substrate
Sequence of purified class A, C and D enzymes (β-lactamases) (Escherichia coli, UniProt Q9L5C7) (Q9L5C7 entry or part of it): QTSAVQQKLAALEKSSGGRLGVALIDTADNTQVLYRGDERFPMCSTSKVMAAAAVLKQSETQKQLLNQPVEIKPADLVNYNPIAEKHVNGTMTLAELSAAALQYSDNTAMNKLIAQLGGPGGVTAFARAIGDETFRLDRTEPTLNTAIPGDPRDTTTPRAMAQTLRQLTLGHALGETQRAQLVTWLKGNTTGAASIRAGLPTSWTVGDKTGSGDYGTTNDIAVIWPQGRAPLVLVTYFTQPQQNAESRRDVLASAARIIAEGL

[5] = molecular target: purified class A, C and D enzymes (β-lactamases) (Klebsiella pneumoniae, UniProt Q6XEC0); test: biochemical; format: biochemical; conditions: purified OXA-48; nitrocefin (NCF) as reporter substrate
[6] = molecular target: purified class A, C and D enzymes (β-lactamases) (Klebsiella pneumoniae, UniProt Q9F663); test: biochemical; format: biochemical; conditions: purified KPC-2; nitrocefin (NCF) as reporter substrate
[7] = molecular target: T2, purified class A, C and D enzymes (β-lactamases) (Pseudomonas aeruginosa, UniProt P24735); test: biochemical; format: biochemical
T2 construct: rows headed: Ki (Pa-AmpC, NCF), uM; other: purified Pa-AmpC; nitrocefin (NCF) as reporter substrate
T2 sequence (P24735 whole entry): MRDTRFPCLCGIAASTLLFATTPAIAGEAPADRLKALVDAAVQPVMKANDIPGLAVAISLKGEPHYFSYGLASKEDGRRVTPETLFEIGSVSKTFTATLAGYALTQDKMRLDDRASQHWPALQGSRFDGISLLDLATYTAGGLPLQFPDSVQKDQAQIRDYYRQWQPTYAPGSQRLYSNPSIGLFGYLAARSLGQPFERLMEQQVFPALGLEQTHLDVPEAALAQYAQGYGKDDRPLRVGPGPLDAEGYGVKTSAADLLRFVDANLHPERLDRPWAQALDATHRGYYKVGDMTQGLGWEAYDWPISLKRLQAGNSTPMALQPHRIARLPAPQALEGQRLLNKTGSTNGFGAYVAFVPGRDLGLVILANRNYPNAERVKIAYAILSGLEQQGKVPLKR

[8] = molecular target: T3, purified class A, C and D enzymes (β-lactamases) (UniProt P0AD64, L31Q/G234S/E235K, species not given); test: biochemical; format: biochemical
T3 construct: Ki (SHV-12, NCF), uM; other: purified SHV-12; nitrocefin (NCF) as reporter substrate
T3 sequence (P0AD64 1-286 L31Q/G234S/E235K): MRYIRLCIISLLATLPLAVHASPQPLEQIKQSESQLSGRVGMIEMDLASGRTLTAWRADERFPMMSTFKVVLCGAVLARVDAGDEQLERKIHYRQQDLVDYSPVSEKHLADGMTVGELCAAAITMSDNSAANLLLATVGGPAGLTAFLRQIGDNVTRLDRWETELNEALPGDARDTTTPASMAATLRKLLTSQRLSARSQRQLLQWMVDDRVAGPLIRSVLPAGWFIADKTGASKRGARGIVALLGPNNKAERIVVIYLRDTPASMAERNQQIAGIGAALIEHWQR

ECL1002 = test: Aztreonam potentiation (MPC@4), strain ECL1002; conditions: minimum BLI concentration inhibiting growth with aztreonam 4 μg/mL; tested up to 40 μg/mL
ec308 SHV-5 = test: Aztreonam potentiation (MPC@4), strain ec308 SHV-5; conditions: minimum BLI concentration inhibiting growth with aztreonam 4 μg/mL; tested up to 40 μg/mL
ec302 TEM-10 = test: Aztreonam potentiation (MPC@4), strain ec302 TEM-10; conditions: minimum BLI concentration inhibiting growth with aztreonam 4 μg/mL; tested up to 40 μg/mL
KP1004 KPC-2 [9] = test: Aztreonam potentiation (MPC@4), strain KP1004 KPC-2; conditions: minimum BLI concentration inhibiting growth with aztreonam 4 μg/mL; tested up to 40 μg/mL
EC1010 CMY-6 = test: Aztreonam potentiation (MPC@4), strain EC1010 CMY-6; conditions: minimum BLI concentration inhibiting growth with aztreonam 4 μg/mL; tested up to 40 μg/mL
KP1010 SHV-12 = test: Aztreonam potentiation (MPC@4), strain KP1010 SHV-12; conditions: minimum BLI concentration inhibiting growth with aztreonam 4 μg/mL; tested up to 40 μg/mL
KP1009 CTX-M-15 = test: Aztreonam potentiation (MPC@4), strain KP1009 CTX-M-15; conditions: minimum BLI concentration inhibiting growth with aztreonam 4 μg/mL; tested up to 40 μg/mL
KP1005 CTX-M-14 = test: Tigemonam potentiation (MPC@4), strain KP1005 CTX-M-14; conditions: minimum BLI concentration inhibiting growth with tigemonam 4 μg/mL; tested up to 40 μg/mL
[10] = read-out: Ki (SHV-12, NCF); purified SHV-12; nitrocefin (NCF) as reporter substrate

| Compound | BPM MPC1 KP1004 KPC-2 (KP1004 KPC-2 [1]) | BPM MPC1 OXA-48 KP1086 (KP1086 OXA-48) | MPM MPC8 AB1053 OXA-72 (AB1053 OXA-72) | MPM MPC8 AB1054 OXA-23 (AB1054 OXA-23) | Ki [2] [nM] | Ki (CTX-M-14, NCF), uM [4] | Ki (OXA-48, NCF), uM [5] | Ki (KPC-2, NCF), uM [6] | AZT MPC4 ECL1002 (ECL1002) | AZT MPC4 SHV-5 ec308 (ec308 SHV-5) | AZT MPC4 TEM-10 ec302 (ec302 TEM-10) | AZT MPC4 KPC-2 KP1004 (KP1004 KPC-2 [9]) | AZT MPC4 CMY-6 EC1010 (EC1010 CMY-6) | AZT MPC4 SHV-12 KP1010 (KP1010 SHV-12) | AZT MPC4 CTX-M-15 KP1009 (KP1009 CTX-M-15) | TIG MPC4 CTX-M-14 KP1005 (KP1005 CTX-M-14) | Ki (P99, NCF), uM [3] | Ki [7] [nM] | Ki [8, 10] [nM] | other results |
| --- | --- | --- | --- | --- | --- | --- | --- | --- | --- | --- | --- | --- | --- | --- | --- | --- | --- | --- | --- | --- |
| C[C@H]1Cc2cccc(C(=O)O)c2O[B-]1(O)O [Compound 9, Disodium; (3S)-4,4-dihydroxy-3-methy-5-oxa-4-boranuidabicyclo[4.4.0]deca-1(6),7,9-triene-7-carboxylate] | X (X = MPC@1 ≤ 5 μg/mL) | X (X = MPC@1 ≤ 5 μg/mL) | Z (Z = MPC@1 > 20 μg/mL) | Z (Z = MPC@1 > 20 μg/mL) | 100 to 1000 | X (X = Ki ≤ 0.1 μM) | X (X = Ki ≤ 0.1 μM) | X (X = Ki ≤ 0.1 μM) | Y (Y = 5 μg/mL < MPC@4 ≤ 20 μg/mL) | Y (Y = 5 μg/mL < MPC@4 ≤ 20 μg/mL) | Z (Z = MPC@4 > 20 μg/mL) | X (X = MPC@4 ≤ 5 μg/mL) | Y (Y = 5 μg/mL < MPC@4 ≤ 20 μg/mL) | Y (Y = 5 μg/mL < MPC@4 ≤ 20 μg/mL) | Z (Z = MPC@4 > 20 μg/mL) | Z (Z = MPC@4 > 20 μg/mL) |  |  |  | Ki (P99, NCF), uM ([3]; purified P99, nitrocefin (NCF) as reporter substrate): X (X = Ki ≤ 0.1 μM); Ki ([7]; purified Pa-AmpC, nitrocefin (NCF) as reporter substrate, read-out: Ki (Pa-AmpC, NCF)): < 100 nM; Ki ([8]; purified SHV-12; nitrocefin (NCF) as reporter substrate; read-out: Ki (SHV-12, NCF)): 100 to 1000 nM |
| C[C@@H]1Cc2cccc(C(=O)[O-])c2O[B-]1(O)O.[Na+].[Na+] [Compound 10, Disodium; (3R)-4,4-dihydroxy-3-methyl-5-oxa-4-boranuidabicyclo[4.4.0]deca-1(6),7,9-triene-7-carboxylate] | X (X = MPC@1 ≤ 5 μg/mL) | Y (Y = 5 μg/mL < MPC@1 ≤ 20 μg/mL) | Z (Z = MPC@1 > 20 μg/mL) | Z (Z = MPC@1 > 20 μg/mL) | > 1000 | X (X = Ki ≤ 0.1 μM) | X (X = Ki ≤ 0.1 μM) | X (X = Ki ≤ 0.1 μM) | Z (Z = MPC@4 > 20 μg/mL) | Z (Z = MPC@4 > 20 μg/mL) | Z (Z = MPC@4 > 20 μg/mL) | Y (Y = 5 μg/mL < MPC@4 ≤ 20 μg/mL) | Z (Z = MPC@4 > 20 μg/mL) | Y (Y = 5 μg/mL < MPC@4 ≤ 20 μg/mL) | Z (Z = MPC@4 > 20 μg/mL) | Z (Z = MPC@4 > 20 μg/mL) | Y (key: X = Ki ≤ 0.1 μM; Y = 0.1 μM < Ki ≤ 1 μM; Z = Ki > 1 μM) | < 100 | 100 to 1000 |  |
| C#Cc1ccc2c(c1C(=O)[O-])O[B-](O)(O)CC2.[Na+].[Na+] [Compound 18, Disodium; 8-ethynyl-4,4-dihydroxy-5-oxa-4-boranuidabicyclo[4.4.0]deca-1(6),7,9-triene-7-carboxylate] | X (X = MPC@1 ≤ 5 μg/mL) | X (X = MPC@1 ≤ 5 μg/mL) | X (X = MPC@1 ≤ 5 μg/mL) | X (X = MPC@1 ≤ 5 μg/mL) | < 100 | X (X = Ki ≤ 0.1 μM) | X (X = Ki ≤ 0.1 μM) | X (X = Ki ≤ 0.1 μM) | X (X = MPC@4 ≤ 5 μg/mL) | X (X = MPC@4 ≤ 5 μg/mL) | X (X = MPC@4 ≤ 5 μg/mL) | X (X = MPC@4 ≤ 5 μg/mL) | X (X = MPC@4 ≤ 5 μg/mL) | X (X = MPC@4 ≤ 5 μg/mL) | X (X = MPC@4 ≤ 5 μg/mL) | Z (Z = MPC@4 > 20 μg/mL) | X (key: X = Ki ≤ 0.1 μM; Y = 0.1 μM < Ki ≤ 1 μM; Z = Ki > 1 μM) | < 100 | < 100 |  |
